Measurements: patent US20260053812A1, “METHODS OF TREATING HYPERTENSION WITH A COMBINATION OF AN ALDOSTERONE SYNTHASE INHIBITOR AND A DIURETIC” (Mineralys Therapeutics, Inc., priority 2022, published 2026)

Experiment: Adverse events (TEAEs, SAEs, AESI; Safety Analysis Set)
Description: In analyses performed on the Safety Analysis Set, subjects will be analyzed according to their actual treatment received.

Question: With `CC(=O)N[C@H]1CC[C@H](NC(=O)CN2CCN(c3nncc(-c4ccc(C)cc4)n3)CC2)CC1` [Compound A HBr] as the compound, how does the “On-treatment TEAE, Hyperkalaemia, Mild, %” value (Part 1, 100 mg QD (N = 30)) read?
Answer: The value was “(26.7) %”.

Question: What about the “On-treatment TEAE, Infections and infestations, %” value (Part 1, 100 mg QD (N = 30)) of the same compound?
Answer: The value was “(6.7) %”.

Question: And the “On-treatment TEAE, Infections and infestations, Moderate, %” value (Part 1, 100 mg QD (N = 30))?
Answer: The value was “(6.7) %”.

Question: And the “On-treatment TEAE, Investigations, %” value (Part 1, 100 mg QD (N = 30))?
Answer: Its value is “(26.7) %”.

Question: What about the “On-treatment TEAE, Investigations, Mild, %” value (Part 1, 100 mg QD (N = 30)) of the same compound?
Answer: The value was “(20.0) %”.

Question: What about the “On-treatment TEAE, Investigations, Moderate, %” value (Part 1, 100 mg QD (N = 30)) of the same compound?
Answer: The value was “(6.7) %”.

Question: And the “On-treatment TEAE, Metabolism and nutrition disorders, %” value (Part 1, 100 mg QD (N = 30))?
Answer: Its value is “(26.7) %”.

Question: What about the “On-treatment TEAE, Metabolism and nutrition disorders, Mild, %” value (Part 1, 100 mg QD (N = 30)) of the same compound?
Answer: The value was “(26.7) %”.

Question: And the “On-treatment TEAE, Psychiatric disorders, %” value (Part 1, 100 mg QD (N = 30))?
Answer: Its value is “(6.7) %”.

Question: What about the “On-treatment TEAE, Psychiatric disorders, Moderate, %” value (Part 1, 100 mg QD (N = 30)) of the same compound?
Answer: The value was “(6.7) %”.

Question: And the “On-treatment TEAE, Urinary tract infection, %” value (Part 1, 100 mg QD (N = 30))?
Answer: The value was “(3.3) %”.

Question: And the “On-treatment TEAE, Vascular disorders, %” value (Part 1, 100 mg QD (N = 30))?
Answer: The value was “(3.3) %”.

Question: What about the “On-treatment TEAE, Vascular disorders, Moderate, %” value (Part 1, 100 mg QD (N = 30)) of the same compound?
Answer: Its value is “(3.3) %”.

Question: And the “Subjects with any On-treatment TEAEs leading to withdrawal from study drug, %” value (Part 1, 100 mg QD (N = 30))?
Answer: Its value is “(13.3) %”.

Question: What about the “Subjects with any On-treatment TEAEs, Mild, %” value (Part 1, 100 mg QD (N = 30)) of the same compound?
Answer: Its value is “(30.0) %”.

Question: What about the “Subjects with any On-treatment TEAEs, Moderate, %” value (Part 1, 100 mg QD (N = 30)) of the same compound?
Answer: Its value is “(23.3) %”.

Question: And the “TEAE leading to permanent discontinuation from study drug, Activated partial thromboplastin time prolonged, %” value (Part 1, 100 mg QD (N = 30))?
Answer: Its value is “(3.3) %”.

Question: What about the “TEAE leading to permanent discontinuation from study drug, Hyperkalaemia, %” value (Part 1, 100 mg QD (N = 30)) of the same compound?
Answer: The value was “(6.7) %”.

Question: And the “TEAE leading to permanent discontinuation from study drug, Hypotension, %” value (Part 1, 100 mg QD (N = 30))?
Answer: Its value is “(3.3) %”.

Question: What about the “TEAE leading to permanent discontinuation from study drug, Investigations, %” value (Part 1, 100 mg QD (N = 30)) of the same compound?
Answer: The value was “(3.3) %”.

Question: What about the “TEAE leading to permanent discontinuation from study drug, Metabolism and nutrition disorders, %” value (Part 1, 100 mg QD (N = 30)) of the same compound?
Answer: The value was “(6.7) %”.

Question: What about the “TEAE leading to permanent discontinuation from study drug, Vascular disorders, %” value (Part 1, 100 mg QD (N = 30)) of the same compound?
Answer: The value was “(3.3) %”.

Question: What about the “On-treatment TEAE, Blood and lymphatic system disorders, %” value (Part 1, Active (N = 133)) of the same compound?
Answer: Its value is “(1.5) %”.

Question: What about the “On-treatment TEAE, Blood and lymphatic system disorders, Mild, %” value (Part 1, Active (N = 133)) of the same compound?
Answer: Its value is “(1.5) %”.

Question: And the “On-treatment TEAE, Blood creatinine increased, %” value (Part 1, Active (N = 133))?
Answer: Its value is “(2.3) %”.

Question: And the “On-treatment TEAE, Blood creatinine increased, Mild, %” value (Part 1, Active (N = 133))?
Answer: Its value is “(2.3) %”.

Question: And the “On-treatment TEAE, Cardiac disorders, %” value (Part 1, Active (N = 133))?
Answer: The value was “(3.0) %”.

Question: And the “On-treatment TEAE, Cortisol decreased, %” value (Part 1, Active (N = 133))?
Answer: Its value is “(2.3) %”.

Question: What about the “On-treatment TEAE, Cortisol decreased, Mild, %” value (Part 1, Active (N = 133)) of the same compound?
Answer: Its value is “(2.3) %”.

Question: And the “On-treatment TEAE, Dizziness, %” value (Part 1, Active (N = 133))?
Answer: Its value is “(2.3) %”.

Question: What about the “On-treatment TEAE, Gastrointestinal disorders, %” value (Part 1, Active (N = 133)) of the same compound?
Answer: The value was “(4.5) %”.

Question: And the “On-treatment TEAE, Gastrointestinal disorders, Mild, %” value (Part 1, Active (N = 133))?
Answer: Its value is “(3.8) %”.

Question: What about the “On-treatment TEAE, General disorders and administration site conditions, %” value (Part 1, Active (N = 133)) of the same compound?
Answer: The value was “(3.8) %”.

Question: And the “On-treatment TEAE, General disorders and administration site conditions, Mild, %” value (Part 1, Active (N = 133))?
Answer: Its value is “(1.5) %”.

Question: What about the “On-treatment TEAE, Glomerular filtration rate decreased, %” value (Part 1, Active (N = 133)) of the same compound?
Answer: Its value is “(6.8) %”.

Question: And the “On-treatment TEAE, Glomerular filtration rate decreased, Mild, %” value (Part 1, Active (N = 133))?
Answer: Its value is “(6.0) %”.

Question: What about the “On-treatment TEAE, Headache, %” value (Part 1, Active (N = 133)) of the same compound?
Answer: Its value is “(2.3) %”.

Question: And the “On-treatment TEAE, Headache, Mild, %” value (Part 1, Active (N = 133))?
Answer: The value was “(2.3) %”.

Question: What about the “On-treatment TEAE, Hyperkalaemia, %” value (Part 1, Active (N = 133)) of the same compound?
Answer: Its value is “(23.3) %”.

Question: What about the “On-treatment TEAE, Hyperkalaemia, Mild, %” value (Part 1, Active (N = 133)) of the same compound?
Answer: Its value is “(19.5) %”.

Question: What about the “On-treatment TEAE, Hyperkalaemia, Moderate, %” value (Part 1, Active (N = 133)) of the same compound?
Answer: Its value is “(3.0) %”.

Question: And the “On-treatment TEAE, Hyperkalaemia, Severe, %” value (Part 1, Active (N = 133))?
Answer: The value was “(0.8) %”.

Question: What about the “On-treatment TEAE, Hypertension, %” value (Part 1, Active (N = 133)) of the same compound?
Answer: Its value is “(3.8) %”.

Question: What about the “On-treatment TEAE, Hypertension, Moderate, %” value (Part 1, Active (N = 133)) of the same compound?
Answer: The value was “(2.3) %”.

Question: And the “On-treatment TEAE, Infections and infestations, %” value (Part 1, Active (N = 133))?
Answer: The value was “(8.3) %”.

Question: And the “On-treatment TEAE, Infections and infestations, Mild, %” value (Part 1, Active (N = 133))?
Answer: Its value is “(3.8) %”.

Question: What about the “On-treatment TEAE, Infections and infestations, Moderate, %” value (Part 1, Active (N = 133)) of the same compound?
Answer: Its value is “(4.5) %”.

Question: And the “On-treatment TEAE, Investigations, %” value (Part 1, Active (N = 133))?
Answer: The value was “(15.8) %”.

Question: And the “On-treatment TEAE, Investigations, Mild, %” value (Part 1, Active (N = 133))?
Answer: Its value is “(12.8) %”.

Question: What about the “On-treatment TEAE, Investigations, Moderate, %” value (Part 1, Active (N = 133)) of the same compound?
Answer: The value was “(3.0) %”.

Question: And the “On-treatment TEAE, Metabolism and nutrition disorders, %” value (Part 1, Active (N = 133))?
Answer: The value was “(25.6) %”.

Question: What about the “On-treatment TEAE, Metabolism and nutrition disorders, Mild, %” value (Part 1, Active (N = 133)) of the same compound?
Answer: The value was “(21.8) %”.

Question: What about the “On-treatment TEAE, Metabolism and nutrition disorders, Moderate, %” value (Part 1, Active (N = 133)) of the same compound?
Answer: Its value is “(3.0) %”.

Question: And the “On-treatment TEAE, Nervous system disorders, %” value (Part 1, Active (N = 133))?
Answer: The value was “(6.0) %”.

Question: What about the “On-treatment TEAE, Nervous system disorders, Mild, %” value (Part 1, Active (N = 133)) of the same compound?
Answer: Its value is “(4.5) %”.

Question: What about the “On-treatment TEAE, Orthostatic hypotension, %” value (Part 1, Active (N = 133)) of the same compound?
Answer: Its value is “(2.3) %”.

Question: And the “On-treatment TEAE, Orthostatic hypotension, Mild, %” value (Part 1, Active (N = 133))?
Answer: Its value is “(2.3) %”.

Question: What about the “On-treatment TEAE, Psychiatric disorders, %” value (Part 1, Active (N = 133)) of the same compound?
Answer: The value was “(2.3) %”.

Question: And the “On-treatment TEAE, Psychiatric disorders, Moderate, %” value (Part 1, Active (N = 133))?
Answer: Its value is “(2.3) %”.

Question: What about the “On-treatment TEAE, Urinary tract infection, %” value (Part 1, Active (N = 133)) of the same compound?
Answer: The value was “(5.3) %”.

Question: What about the “On-treatment TEAE, Urinary tract infection, Mild, %” value (Part 1, Active (N = 133)) of the same compound?
Answer: Its value is “(3.0) %”.

Question: And the “On-treatment TEAE, Vascular disorders, %” value (Part 1, Active (N = 133))?
Answer: Its value is “(6.8) %”.

Question: What about the “On-treatment TEAE, Vascular disorders, Mild, %” value (Part 1, Active (N = 133)) of the same compound?
Answer: Its value is “(3.8) %”.

Question: And the “On-treatment TEAE, Vascular disorders, Moderate, %” value (Part 1, Active (N = 133))?
Answer: Its value is “(3.0) %”.

Question: What about the “Subjects with any On-treatment TEAEs leading to withdrawal from study drug, %” value (Part 1, Active (N = 133)) of the same compound?
Answer: Its value is “(7.5) %”.

Question: What about the “Subjects with any On-treatment TEAEs, Mild, %” value (Part 1, Active (N = 133)) of the same compound?
Answer: The value was “(35.3) %”.

Question: What about the “Subjects with any On-treatment TEAEs, Moderate, %” value (Part 1, Active (N = 133)) of the same compound?
Answer: Its value is “(18.8) %”.

Question: And the “Subjects with any On-treatment TEAEs, Severe, %” value (Part 1, Active (N = 133))?
Answer: The value was “(0.8) %”.

Question: What about the “TEAE leading to permanent discontinuation from study drug, Activated partial thromboplastin time prolonged, %” value (Part 1, Active (N = 133)) of the same compound?
Answer: The value was “(0.8) %”.

Question: And the “TEAE leading to permanent discontinuation from study drug, Cardiac disorders, %” value (Part 1, Active (N = 133))?
Answer: The value was “(0.8) %”.

Question: What about the “TEAE leading to permanent discontinuation from study drug, Coronary artery disease, %” value (Part 1, Active (N = 133)) of the same compound?
Answer: The value was “(0.8) %”.

Question: What about the “TEAE leading to permanent discontinuation from study drug, Dizziness, %” value (Part 1, Active (N = 133)) of the same compound?
Answer: Its value is “(0.8) %”.

Question: And the “TEAE leading to permanent discontinuation from study drug, Hyperkalaemia, %” value (Part 1, Active (N = 133))?
Answer: Its value is “(3.8) %”.

Question: And the “TEAE leading to permanent discontinuation from study drug, Hypertension, %” value (Part 1, Active (N = 133))?
Answer: The value was “(0.8) %”.

Question: What about the “TEAE leading to permanent discontinuation from study drug, Hypotension, %” value (Part 1, Active (N = 133)) of the same compound?
Answer: Its value is “(0.8) %”.

Question: What about the “TEAE leading to permanent discontinuation from study drug, Investigations, %” value (Part 1, Active (N = 133)) of the same compound?
Answer: Its value is “(0.8) %”.

Question: And the “TEAE leading to permanent discontinuation from study drug, Metabolism and nutrition disorders, %” value (Part 1, Active (N = 133))?
Answer: The value was “(3.8) %”.

Question: And the “TEAE leading to permanent discontinuation from study drug, Nervous system disorders, %” value (Part 1, Active (N = 133))?
Answer: Its value is “(0.8) %”.

Question: And the “TEAE leading to permanent discontinuation from study drug, Orthostatic hypotension, %” value (Part 1, Active (N = 133))?
Answer: The value was “(0.8) %”.
